Values quoted from earlier work in patent publication US20210038510A1, “FORMULATIONS OF KINASE INHIBITORS AND PROSTANOIDS” (PULMOKINE, INC., priority 2018, published 2021).

Tests used:
[1] = system: rat monocrotaline model of PAH
[2] = system: PDGFRβ isoform versus PDGFRα isoform
[3] = system: patients with advanced PAH

For `Cc1ccc(NC(=O)c2ccc(CN3CCN(C)CC3)cc2)cc1Nc1nccc(-c2cccnc2)n1` [Imatinib, imatinib], the “Right ventricular systolic pressure (RVSP)” value [1] is given as “decreases”, the Survival [1] is given as “improves survival” and the “Potency against the PDGFRβ isoform compared with the PDGFRα isoform” value [2] is given as “less potent”. The Cardiopulmonary hemodynamics [3] was “improves cardiopulmonary hemodynamics”.
